# Read-outs that look alike come from different tables or passages of the source.
# Key:
# [1] = test system: Aβ42; experiment: Aβ42 ELISA of conditioned media, iPSC-derived neurons; format: cell-based, human; details: for IC50: Homo sapiens, Neuron
# Description: The human iPSC SAD2.3 (UCSD234i‐SAD2‐3) and HVRDi002A were purchased from Wicell, UKBi011A from the European Bank for induced pluripotent stem cells, Sigma, AG25367, AG25370, AG27606, AG27608, AG27609, AG28049, AG28262, and AG27602 from Coriell. All iPSCs were maintained and expanded on Matrigel (Growth factor reduced Matrigel matrix, Corning) in mTeSR1 complete medium (mTeSR1 medium + 5X supplement, Stem Cell Technologies). For iPSC‐Ns transgene delivery, each iPSC line was transduced with lentiviral particles for pLVX‐UbC‐rtTA‐Ngn2:2A:Ascl1 […]), followed by selection in the presence of puromycin ([…], Gibco). To initiate conversion, iPSCs were differentiated into neurons using the established Ascl1/Mash1 (33) and Neurogenin 2 (Ngn2) (34) protocols.
# iPSC‐Ns or HEK‐APP695WT were treated with drugs, and secreted Aβ42 peptides inculture soup were quantified using the Human Amyloid β1‐42 human ELISA kit (Thermo Fisher) according to the manufacturer's protocol. Mouse brain extraction was performed as previously described, with minor modifications. Mouse brain tissues were homogenized at a 1:10 weight‐to‐volume ratio in Tris‐buffered saline (TBS; 50 mM Tris, pH 7.4, 150 mM NaCl) supplemented with 2 mM EDTA and protease inhibitors. TBS‐homogenized brains were centrifuged for 1 h at 16 000 g. To extract total Aβ, including insoluble fractions, formic acid was added to a final concentration of 70%, and the samples were thoroughly mixed by pipetting. Homogenates were centrifuged at 100 000 g for 1 h at 4°C, and the resulting supernatants were collected. Prior to quantification, formic acid‐containing samples were neutralized with 1 M Tris base (pH 11). Aβ40 and Aβ42 levels were measured using human‐specific ELISA kits (Invitrogen) and normalized to total protein concentrations determined by the BCA assay (Thermo Scientific). For Aβ quantification in 3D organoids, 3D organoids’ processing and ELISA analysis were performed with minor modifications from previously described protocols. Briefly, cerebral organoids were lysed in RIPA buffer supplemented with protease and phosphatase inhibitor cocktails (Sigma), followed by sonication and incubation on ice for 60 min. Lysates were centrifuged at 13 000 rpm for 1 h at 4°C, and the supernatants were collected as the RIPA‐soluble fraction. The remaining pellets were resuspended in 70% formic acid, sonicated, and subsequently neutralized with Tris buffer to obtain the formic acid‐solubilized fraction. Aβ42 levels in both fractions were measured using human‐specific ELISA kits (Thermo Fisher) according to the manufacturer's instructions. Formic acid extracts were appropriately neutralized prior to ELISA. Aβ levels were normalized to total protein concentration determined by BCA assay.
# [2] = test system: APP trafficking through the endosomal‐lysosomal pathway; experiment: Confocal colocalization of APP / CAPRIN1 with organelle markers; format: cell-based, human; details: for APP–LAMP1 colocalization: AD iPSC-Ns
# Experimental: Cells were grown on glass cover slips coated with 1% Matrigel and treated with drugs. Cells were washed, fixed, permeabilized, blocked, and incubated in primary antibodies diluted in blocking solution (1% v/v BSA solution/5% Goat serum in PBS containing 0.1% Triton X‐100) overnight at 4°C. The cells were washed three times with PBS and incubated in secondary antibodies in a blocking solution for 1 h at room temperature, then washed with PBS, followed by HOECHST staining (Invitrogen) for 5 min, and washed with PBS. The glass coverslips were put on a slide‐in mounting medium ([…]), and the edges were sealed with coverslip sealant (BIOTIUM). Image data were captured and processed with a confocal microscope system (Olympus Fluoview FV1000 or Leica DIVE) and the ImageJ program. For 3D organoids staining, organoids were fixed in 10% formalin overnight at room temperature, followed by incubation in 30% sucrose solution overnight at room temperature, embedded in optimal cutting temperature compound (OCT, FisherScientific), and kept at ‐80°C overnight. Frozen samples were sectioned at 10 µm using a cryostat (Leica) and mounted on microscope slides (Fisherbrand superfrost plus, FisherScientific). Before immunolabeling, sections were rinsed in PBS for 5 min, permeabilized for 30 min in PBS containing 0.3% Triton‐X 100, blocked for 1 h in PBS containing 5% BSA and 0.1% Triton‐X 100, and incubated with primary antibodies diluted in the same blocking solution. Then, secondary staining, mounting, and imaging were followed.
# ImageJ (Fiji) program (NIH, Bethesda, MD, USA) was used o analyze images. Pearson's correlation coefficients were calculated with the JACoP plugin from two channels (BIOP). For colocalization/trafficking analysis with organelles in iPSC‐Ns, HEK293 cells, and 3D organoids, APP or CAPRIN1 with organelles signals were segmented using a trainable weka segmentation plugin in Fiji as previously described. Colocalized areas were calculated in the image calculator tool ([…] function) to get an overlayed area for the segmented signals, followed by using the analyze particle tool in Fiji to determine by > 1‐pixel overlapping of the segmented signal. To determine the fluorescence intensity, the corrected total cell fluorescence (CTCF) was used using the formula: CTCF = Integrated Density—(Area of selected cell x Mean fluorescence of background readings), as described previously. Bright‐field images of immunoperoxidase‐stained and Thioflavin S‐stained brain sections were exported as 16‐bit RGB TIFF files and analyzed using ImageJ (Fiji), following previously established protocols. To isolate the DAB signal for quantification, color deconvolution was performed using the “H DAB” setting in the Color Deconvolution plugin in ImageJ. The resulting “Colour_2” image, corresponding to the DAB chromogen, was converted to 8‐bit grayscale for further analysis. Manual thresholding was applied to the DAB channel using the threshold adjustment tool in ImageJ. […] Regions of interest (ROIs), specifically the subiculum, hippocampus, and cortex, were manually delineated based on anatomical landmarks and saved using the ROI Manager. For each ROI, the DAB‐positive area was quantified using the Analyze Particles plugin with default particle size settings. The percentage of DAB‐positive area was calculated as the ratio of the DAB‐positive area to the total area of each ROI.
# [3] = 120 h, AG27606 neurons, 5-day treatment, ELISA, normalized to DMSO, read-out: IC50, Aβ42 dose–response
Structure (SMILES),"Aβ42 secretion across iPSC-Ns from sAD, fAD and non-AD donors ([1]; 10 µM, 72 h)","IC50 [1, 3] [µM]","IC50 ([1]; 120 h, sAD2.3 neurons, 5 days treatment, ELISA, read-out: IC50, relative Aβ42 levels in conditioned media) [µM]","IC50 ([1]; SAD2.3-Ns and AG27606-Ns, read-out: IC50 values, Aβ42 secretion) [µM]","Aβ42 levels in culture media ([1]; sAD2.3 neurons, 10 µM, 72 h)","APP–LAMP1 colocalization ([2]; 10 µM, 24 h)","APP colocalization with EEA1, Rab7 and LAMP1 ([2]; AG27606-Ns, 10 µM, 0, 3 or 7 h)","CAPRIN1 colocalization with Rab7 and LAMP1 ([2]; AG27606-Ns, 10 µM, 0, 3 or 7 h)","Colocalization of APP and CAPRIN1 with GGA1 ([2]; AG27606 neurons, 10 µM, 24 h)","Colocalization of APP and CAPRIN1 with SorLA ([2]; AG27606 neurons, 10 µM, 24 h)"
N#Cc1cccc(NC(=O)Nc2nc3ccc(C(=O)N4CCOCC4)cc3s2)c1 [compound 0043],effectively lowered Aβ42 secretion,2.1,1.8,1.8 to 2.1,reduced Aβ42 levels,increased APP–LAMP1 colocalization,significantly increased APP colocalization with all three markers,increase its colocalization with both markers,–,–
COc1cccc(NC(=O)Nc2nc3ccc(C(=O)N4CCOCC4)cc3s2)c1 [compound 0152],consistently reduced both APP and Aβ42 levels,0.9,–,–,–,increased APP–LAMP1 colocalization,–,–,enhanced the colocalization of both APP and CAPRIN1 with GGA1,reduced the colocalization of both APP and CAPRIN1 with SorLA

# From article PMC13534789, “Molecular Glue Degraders Enhance CAPRIN1‐Dependent Lysosomal Degradation of APP and Reduce Amyloid β in Alzheimer's Disease” (Advanced Science, 2026)
